Values belong to the molecule of their own block, whether it stands above or below them.
Experiments:
Rattus norvegicus [1] = assay: Suppression of acute pulmonary transplant rejection in rat at 100 mg/kg at 100 mg/kg followed by 60 mg/kg/day until day 4 after surgery measured on day 5 post initial dose; format: functional
[2] = Half life in pH 7.8 buffer; format: physicochemical
Rattus norvegicus [3] = assay: Suppression of acute pulmonary transplant rejection in rat at 100 mg/kg; format: functional
MDA-MB-231 = assay: Growth inhibition of human MDA-MB-231 cells; format: functional, cell-based
Rattus norvegicus [4] = species on record: Rattus norvegicus; assay: Inhibition of bone resorption in rat; format: functional; details: read-out: MED
[5] = target: T1, Farnesyl pyrophosphate synthase (Homo sapiens, UniProt P14324)
T1 sequence (P14324 whole entry): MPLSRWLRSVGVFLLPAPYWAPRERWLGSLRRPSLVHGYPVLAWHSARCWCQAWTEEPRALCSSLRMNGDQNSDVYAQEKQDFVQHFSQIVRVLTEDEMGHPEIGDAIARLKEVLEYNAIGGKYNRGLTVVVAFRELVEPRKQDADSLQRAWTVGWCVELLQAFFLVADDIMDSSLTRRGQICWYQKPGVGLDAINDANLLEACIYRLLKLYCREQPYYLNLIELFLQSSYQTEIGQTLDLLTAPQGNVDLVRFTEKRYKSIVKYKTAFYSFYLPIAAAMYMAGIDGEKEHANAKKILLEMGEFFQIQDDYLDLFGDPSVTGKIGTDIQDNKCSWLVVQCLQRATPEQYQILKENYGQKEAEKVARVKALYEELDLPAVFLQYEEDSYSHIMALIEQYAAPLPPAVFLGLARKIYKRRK

Cytosol aminopeptidase = Cytosol aminopeptidase (Homo sapiens, UniProt P28838); assay: Inhibition of LAP
[6] = Inhibition of Bacillus pasteurii urease; parameters: species or system Sporosarcina pasteurii
[7] = Terminal half life in healthy human at 10 mg dosed as single daily dose; format: ADME, organism-based; details: in vivo, read-out: beta t1/2 (converted)
[8] = target: T2, Angiotensin-converting enzyme (Homo sapiens, UniProt P12821); assay: Inhibition of ACE
[9] = Total body clearance in healthy human at 10 mg dosed as single daily dose; format: ADME, organism-based; details: in vivo
[10] = Inhibition of ECE
[11] = Inhibition of urease in intact Proteus mirabilis
Aminopeptidase N = Aminopeptidase N (Homo sapiens, UniProt P15144); assay: Inhibition of APN
[12] = Half life in human at 200 mg, im; format: ADME, organism-based; details: in vivo
[13] = Half life in Sprague-Dawley rat at 20 mg/kg, sc administered as single dose; format: ADME, organism-based; parameters: dose 20 mg/kg, route subcutaneous; details: in vivo
Rattus norvegicus [14] = assay: AUC in Sprague-Dawley rat at 20 mg/kg, sc administered as single dose; format: ADME, organism-based, Plasma; parameters: dose 20 mg/kg, route subcutaneous; details: in vivo
[15] = Tmax in Sprague-Dawley rat at 20 mg/kg, sc administered as single dose; format: ADME, organism-based; parameters: dose 20 mg/kg, route subcutaneous; details: in vivo
Homo sapiens [16] = assay: Reduction in diastolic blood pressure in hypertensive patient receiving 10 to 40 mg/day, po dosed as single or multiple dose; format: functional, Artery; parameters: scale not given: the % may be the effect or the level left
Homo sapiens [17] = assay: Reduction in systolic blood pressure in hypertensive patient receiving 10 to 40 mg/day, po dosed as single or multiple dose; format: functional, Artery; parameters: scale not given: the % may be the effect or the level left
Homo sapiens [18] = assay: Reduction in arterial blood pressure in hypertensive patient receiving 10 to 40 mg/day, po dosed as single or multiple dose; format: functional; parameters: scale not given: the % may be the effect or the level left
[19] = Tmax in healthy human at 10 mg dosed as single daily dose; format: ADME, organism-based; details: in vivo
[20] = AUC in healthy human at 10 mg dosed as single daily dose; format: ADME, organism-based; details: plasma
[21] = Drug absorption in healthy human at 10 mg dosed as single daily dose; format: ADME, organism-based; details: in vivo, read-out: Drug absorption
[22] = Cmax in healthy human at 10 mg dosed as single daily dose; format: ADME, organism-based; parameters: dose 10 mg; details: in vivo
[23] = target: Matrix metalloproteinase-14 (Homo sapiens, UniProt P50281); assay: Inhibition of MMP-14
Collagenase 3 = Collagenase 3 (Homo sapiens, UniProt P45452); assay: Inhibition of MMP-13
Oryctolagus cuniculus = assay: Inhibition of DPP4 activity in rabbit plasma at 1 to 10 mg, iv; format: functional
[24] = Inhibition of bacterial APN; parameters: species or system Bacteria
[25] = target: T2, Angiotensin-converting enzyme; assay: Inhibition of human ACE N-terminal domain expressed in CHO cells after 90 mins by fluorescence assay; format: cell-based
[26] = target: T2, Angiotensin-converting enzyme; assay: Inhibition of human ACE C-terminal domain expressed in CHO cells after 90 mins by fluorescence assay; format: cell-based

T2 sequence (P12821 whole entry): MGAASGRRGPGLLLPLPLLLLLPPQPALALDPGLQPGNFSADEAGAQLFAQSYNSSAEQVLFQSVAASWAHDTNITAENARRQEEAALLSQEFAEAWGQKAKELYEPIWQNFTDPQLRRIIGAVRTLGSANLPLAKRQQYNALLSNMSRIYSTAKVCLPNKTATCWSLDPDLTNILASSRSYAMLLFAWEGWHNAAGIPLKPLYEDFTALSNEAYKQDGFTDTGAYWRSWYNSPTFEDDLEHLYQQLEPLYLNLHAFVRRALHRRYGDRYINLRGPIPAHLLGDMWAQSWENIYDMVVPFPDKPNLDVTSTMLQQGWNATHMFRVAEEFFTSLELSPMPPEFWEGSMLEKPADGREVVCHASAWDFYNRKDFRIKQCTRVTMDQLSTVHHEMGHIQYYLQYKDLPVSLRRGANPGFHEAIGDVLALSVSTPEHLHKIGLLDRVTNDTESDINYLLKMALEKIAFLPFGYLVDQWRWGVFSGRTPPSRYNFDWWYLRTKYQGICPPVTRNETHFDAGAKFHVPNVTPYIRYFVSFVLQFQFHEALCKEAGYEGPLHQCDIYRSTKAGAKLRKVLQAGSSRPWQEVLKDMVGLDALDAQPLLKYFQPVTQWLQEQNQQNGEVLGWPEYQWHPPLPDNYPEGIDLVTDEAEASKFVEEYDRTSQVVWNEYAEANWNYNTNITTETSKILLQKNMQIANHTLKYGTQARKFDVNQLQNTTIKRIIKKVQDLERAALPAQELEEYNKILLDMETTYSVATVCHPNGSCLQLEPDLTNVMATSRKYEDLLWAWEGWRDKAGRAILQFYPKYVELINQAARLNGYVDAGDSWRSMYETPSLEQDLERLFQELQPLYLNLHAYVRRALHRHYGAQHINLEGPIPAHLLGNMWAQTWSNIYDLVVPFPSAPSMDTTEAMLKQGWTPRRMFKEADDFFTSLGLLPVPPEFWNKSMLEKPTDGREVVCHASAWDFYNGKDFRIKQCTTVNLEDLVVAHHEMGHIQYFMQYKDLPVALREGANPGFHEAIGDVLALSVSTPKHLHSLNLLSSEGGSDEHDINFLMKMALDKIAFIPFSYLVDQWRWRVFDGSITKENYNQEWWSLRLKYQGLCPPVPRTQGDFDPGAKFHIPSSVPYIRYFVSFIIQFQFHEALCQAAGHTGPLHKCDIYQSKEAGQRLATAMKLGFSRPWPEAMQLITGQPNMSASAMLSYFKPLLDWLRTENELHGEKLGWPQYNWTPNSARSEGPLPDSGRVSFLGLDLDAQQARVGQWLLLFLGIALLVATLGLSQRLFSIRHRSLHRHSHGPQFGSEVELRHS
Cytosol aminopeptidase, sequence (P28838 whole entry): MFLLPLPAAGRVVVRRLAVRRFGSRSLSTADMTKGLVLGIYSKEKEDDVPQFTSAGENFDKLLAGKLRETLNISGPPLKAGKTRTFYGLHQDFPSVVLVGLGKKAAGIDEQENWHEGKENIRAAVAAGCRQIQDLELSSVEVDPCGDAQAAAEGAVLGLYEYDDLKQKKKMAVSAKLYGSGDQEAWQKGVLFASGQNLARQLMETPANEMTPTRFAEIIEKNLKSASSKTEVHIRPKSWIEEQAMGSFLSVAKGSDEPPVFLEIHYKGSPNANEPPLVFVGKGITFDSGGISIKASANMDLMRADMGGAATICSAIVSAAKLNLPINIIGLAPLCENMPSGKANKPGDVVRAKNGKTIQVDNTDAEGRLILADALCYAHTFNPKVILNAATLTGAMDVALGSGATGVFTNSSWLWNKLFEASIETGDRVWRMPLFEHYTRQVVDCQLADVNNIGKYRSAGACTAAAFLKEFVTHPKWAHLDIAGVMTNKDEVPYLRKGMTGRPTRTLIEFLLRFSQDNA
Aminopeptidase N, sequence (P15144 whole entry): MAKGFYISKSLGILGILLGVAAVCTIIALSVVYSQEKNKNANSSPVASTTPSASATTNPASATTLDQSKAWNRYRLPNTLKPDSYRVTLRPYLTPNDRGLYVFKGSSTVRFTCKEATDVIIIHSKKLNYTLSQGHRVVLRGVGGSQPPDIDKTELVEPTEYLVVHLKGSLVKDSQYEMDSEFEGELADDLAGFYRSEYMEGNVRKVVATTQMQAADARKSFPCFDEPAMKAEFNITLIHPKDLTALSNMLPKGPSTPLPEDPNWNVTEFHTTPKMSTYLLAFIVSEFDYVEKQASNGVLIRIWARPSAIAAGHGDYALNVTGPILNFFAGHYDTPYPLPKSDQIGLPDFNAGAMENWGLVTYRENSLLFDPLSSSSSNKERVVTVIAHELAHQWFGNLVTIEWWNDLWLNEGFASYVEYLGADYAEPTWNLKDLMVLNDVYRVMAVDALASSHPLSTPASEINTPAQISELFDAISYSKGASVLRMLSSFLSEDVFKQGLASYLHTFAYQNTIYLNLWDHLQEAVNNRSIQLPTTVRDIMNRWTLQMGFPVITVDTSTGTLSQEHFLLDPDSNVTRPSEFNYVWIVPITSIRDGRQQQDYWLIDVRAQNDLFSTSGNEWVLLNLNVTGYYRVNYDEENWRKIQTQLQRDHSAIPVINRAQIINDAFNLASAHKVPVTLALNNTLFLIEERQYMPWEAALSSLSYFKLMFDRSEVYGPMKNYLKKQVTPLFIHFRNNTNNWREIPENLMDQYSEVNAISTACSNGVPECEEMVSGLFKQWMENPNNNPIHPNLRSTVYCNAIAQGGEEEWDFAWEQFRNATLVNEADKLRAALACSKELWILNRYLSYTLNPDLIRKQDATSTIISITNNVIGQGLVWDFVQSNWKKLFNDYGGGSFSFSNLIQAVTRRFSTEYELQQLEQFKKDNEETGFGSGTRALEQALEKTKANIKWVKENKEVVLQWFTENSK

SMILES: CC(=O)Nc1ccc(OP(=O)(Oc2ccc(NC(C)=O)cc2)C2CCCN2C(=O)[C@@H]2CCCN2)cc1 (stereo not given in full)
Activity (Rattus norvegicus [1]): >90% | half-life [2]: 5.33 h | Activity (Rattus norvegicus [3]): >95%

IC50 (MDA-MB-231): 100 nM
SMILES: CCCCCCCCCCOc1ccc[n+](CC(P(=O)([O-])O)P(=O)(O)O)c1 (stereo not given)

SMILES: O=P(O)(O)C(NC1CCCCCC1)P(=O)(O)O [INCADRONIC ACID]
minimal effective dose (Rattus norvegicus [4]): 1 µg/kg | IC50 [5]: 30 nM

Ki (Cytosol aminopeptidase): 58000 nM
SMILES: CC(C)CC(N)P(=O)(O)O[C@@H](CC(C)C)C(=O)O (stereo not given in full)

SMILES: NCP(=O)(O)CO [AMINOMETHYL(HYDROXYMETHYL)PHOSPHINIC ACID]
Ki [6]: 95000 nM

SMILES: CP(O)(=S)CNC(=O)CNC(=O)OCc1ccccc1 (stereo not given)
Ki [6]: 170 nM

half-life [7]: 12 h | Ki [8]: 1.5 nM | clearance [9]: 25.8 mL/min
SMILES: O=C(O)[C@@H]1C[C@@H](C2CCCCC2)CN1C(=O)CP(=O)(O)CCCCc1ccccc1 [FOSINOPRILAT]

SMILES: C[C@H](N)C(=O)N1CCCCC1P(=O)(Oc1ccc(Cl)cc1)Oc1ccc(Cl)cc1 (stereo not given in full)
half-life [2]: > 48 h

Ki [10]: 14 nM
SMILES: O=C(N[C@@H](Cc1ccccc1)P(=O)(O)C[C@H](Cc1cc(-c2ccccc2)no1)C(=O)N[C@@H](Cc1ccc(O)cc1)C(=O)O)OCc1ccccc1

SMILES: CNCP(=O)(O)CO [HYDROXYMETHYL((METHYLAMINO)METHYL)PHOSPHINIC ACID]
Ki [6]: 430 nM

SMILES: CNCP(C)(=O)O [METHYL((METHYLAMINO)METHYL)PHOSPHINIC ACID]
IC50 [11]: 36000 nM | Ki [6]: 18000 nM

SMILES: CC(C)CC(CP(=O)(O)[C@@H](N)CC(C)C)C(=O)O (mixture of isomers)
Ki (Aminopeptidase N): 1020 nM | Ki (Cytosol aminopeptidase): 65 nM

SMILES: CCOC(=O)CNC(=O)c1ccc(OP(=O)(Oc2ccc(C(=O)NCC(=O)OCC)cc2)C2CCCN2C(=O)[C@@H]2CCCN2)cc1 (stereo not given in full)
half-life [2]: 0.583 h

SMILES: CN(C)CP(=O)(O)CO [(DIMETHYLAMINO)METHYL(HYDROXYMETHYL)PHOSPHINIC ACID]
Ki [6]: 5000 nM

half-life [12]: 1 h | half-life [13]: 0.333 h | AUC (Rattus norvegicus [14]): 25000 ng·h/mL | Tmax [15]: 0.333 h
SMILES: C[C@H](N)C(=O)N[C@@H](C)P(=O)(O)O [ALAFOSFALIN]

SMILES: CN(C)CP(C)(=O)O [(DIMETHYLAMINO)METHYL(METHYL)PHOSPHINIC ACID]
Ki [6]: 620 nM

SMILES: O.O=P(O)(O)C(O)(Cn1ccnc1)P(=O)(O)O [ZOLEDRONIC ACID]
minimal effective dose (Rattus norvegicus [4]): 0.1 µg/kg

Tmax [19]: 3 h | AUC [20]: 1000 ng·h/mL | Fa [21]: 30% | Cmax [22]: 100 ng/mL
SMILES: CCC(=O)O[C@@H](O[P@](=O)(CCCCc1ccccc1)CC(=O)N1C[C@H](C2CCCCC2)C[C@H]1C(=O)O)C(C)C [FOSINOPRIL]
Activity (Homo sapiens [16]): 10% | Activity (Homo sapiens [17]): 10% | Activity (Homo sapiens [18]): 10%

SMILES: O=P(O)(O)C(O)(Cc1cccnc1)P(=O)(O)O [RISEDRONIC ACID]
minimal effective dose (Rattus norvegicus [4]): 0.3 µg/kg

Ki [23]: 5100 nM | Ki (Collagenase 3): 28 nM
SMILES: NC(=O)[C@H](Cc1c[nH]c2ccccc12)NC(=O)[C@@H](CP(=O)(O)[C@H](Cc1ccccc1)NC(=O)OCc1ccccc1)c1cc(-c2cccc(Oc3ccccc3)c2)no1

SMILES: CP(=O)(O)CNC(=O)CN
Ki [6]: 21000 nM

IC50 [8]: 12 nM
SMILES: O=C(N[C@@H](CCc1ccccc1)CP(=O)(O)CC(=O)N1CCC[C@H]1C(=O)O)c1ccccc1

SMILES: C[C@H](N)C(=O)N1CCCC1P(=O)(Oc1ccc(Cl)cc1)Oc1ccc(Cl)cc1 (stereo not given in full)
half-life [2]: > 48 h

SMILES: O=C([C@@H]1CCCN1)N1CCCC1P(=O)(Oc1ccccc1)Oc1ccccc1 (stereo not given in full)
inhibition (INH) (Oryctolagus cuniculus): 80%

SMILES: CP(=O)(O)CN [AMINOMETHYL(METHYL)PHOSPHINIC ACID]
Ki [6]: 340000 nM

Ki [24]: 1.5 nM
SMILES: C[C@H](N)P(=O)(O)C[C@@H](Cc1ccccc1)C(=O)N[C@@H](Cc1ccccc1)C(=O)O

Ki [25]: 10000 nM | Ki [26]: 3 nM
SMILES: O=C(N[C@@H](Cc1ccccc1)P(=O)(O)C1CCC[C@H]1C(=O)N[C@@H](Cc1c[nH]c2ccccc12)C(=O)O)OCc1ccccc1 (stereo not given in full)

IC50 [11]: 64400 nM
SMILES: CC(=O)NO [ACETOHYDROXAMIC ACID]

SMILES: NCCC(O)(P(=O)(O)O)P(=O)(O)O [PAMIDRONIC ACID]
minimal effective dose (Rattus norvegicus [4]): 30 µg/kg

SMILES: NCCCC(O)(P(=O)(O)O)P(=O)(O)O [ALENDRONIC ACID]
minimal effective dose (Rattus norvegicus [4]): 1 µg/kg

Ki [25]: 7 nM | Ki [26]: 7500 nM
SMILES: CC(=O)N[C@@H](CC(=O)O)C(=O)N[C@@H](Cc1ccccc1)P(=O)(O)C[C@@H](C)C(=O)N[C@@H](C)C(N)=O
